Laboratory results from patent US9745284B2, “2-pyridyloxy-4-ether orexin receptor antagonists” (MERCK SHARP & DOHME CORP., priority 2013, dated 2017).

What was measured:
human orexin-2 receptor = human orexin-2 receptor (Homo sapiens (Human), UniProt O43614); experiment: FLIPR Ca2+ flux assay, orexin-2 receptor; assay type: cell-based; conditions: CHO cells expressing human orexin-2 receptor; agonist 70 pM Ala-6,12 orexin-A; read-out: hOX2R FLIPR IC50
Procedure: The utility of the compounds in accordance with the present invention as orexin receptor OX1R and/or OX2R antagonists may be readily determined without undue experimentation by methodology well known in the art, including the “FLIPR Ca^2+ Flux Assay” (Okumura et al., Biochem. Biophys. Res. Comm. 280:976-981, 2001). In a typical experiment the OX1 and OX2 receptor antagonistic activity of the compounds of the present invention was determined in accordance with the following experimental method. For intracellular calcium measurements, Chinese hamster ovary (CHO) cells expressing the rat orexin-1 receptor or the human orexin-2 receptor, are grown in Iscove's modified DMEM containing 2 mM L-glutamine, […], 1% hypoxanthine-thymidine supplement, 100 U/ml penicillin, 100 μg/ml streptomycin and 10% heat-inactivated fetal calf serum (FCS). The cells are seeded at 20,000 cells/well into Becton-Dickinson black 384-well clear bottom sterile plates coated with poly-D-lysine. All reagents were from GIBCO-Invitrogen Corp. The seeded plates are incubated overnight at 37° C. and 5% CO2. Ala-6,12 human orexin-A as the agonist is prepared as a 1 mM stock solution in 1% bovine serum albumin (BSA) and diluted in assay buffer (HBSS containing 20 mM HEPES, 0.1% BSA and 2.5 mM probenecid, pH7.4) for use in the assay at a final concentration of 70 pM. Test compounds are prepared as 10 mM stock solution in DMSO, then diluted in 384-well plates, first in DMSO, then assay buffer. On the day of the assay, cells are washed 3 times with 100 μl assay buffer and then incubated for 60 min (37° C., 5% CO2) in 60 μl assay buffer containing 1 μM Fluo-4AM ester, 0.02% pluronic acid, and 1% BSA. The dye loading solution is then aspirated and cells are washed 3 times with 100 μl assay buffer. 30 μl of that same buffer is left in each well. Within the Fluorescent Imaging Plate Reader (FLIPR, Molecular Devices), test compounds are added to the plate in a volume of 25 μl, incubated for 5 min and finally 25 μl of agonist is added. Fluorescence is measured for each well at 1 second intervals for 5 minutes and the height of each fluorescence peak is compared to the height of the fluorescence peak induced by 70 pM Ala-6,12 orexin-A with buffer in place of antagonist. For each antagonist, IC50 value (the concentration of compound needed to inhibit 50% of the agonist response) is determined. Alternatively, compound potency can be assessed by a radioligand binding assay (described in Bergman et. al. Bioorg. Med. Chem. Lett. 2008, 18, 1425-1430) in which the inhibition constant (Ki) is determined in membranes prepared from CHO cells expressing either the OX1 or OX2 receptor. The intrinsic orexin receptor antagonist activity of a compound which may be used in the present invention may be determined by these assays.

hOX1R = hOX1R (Homo sapiens, UniProt O43613); experiment: FLIPR Ca2+ flux assay, orexin-1 receptor; assay type: cell-based; conditions: CHO cells expressing orexin-1 receptor; agonist 70 pM Ala-6,12 orexin-A

Chain of human orexin-2 receptor (O43614 whole entry): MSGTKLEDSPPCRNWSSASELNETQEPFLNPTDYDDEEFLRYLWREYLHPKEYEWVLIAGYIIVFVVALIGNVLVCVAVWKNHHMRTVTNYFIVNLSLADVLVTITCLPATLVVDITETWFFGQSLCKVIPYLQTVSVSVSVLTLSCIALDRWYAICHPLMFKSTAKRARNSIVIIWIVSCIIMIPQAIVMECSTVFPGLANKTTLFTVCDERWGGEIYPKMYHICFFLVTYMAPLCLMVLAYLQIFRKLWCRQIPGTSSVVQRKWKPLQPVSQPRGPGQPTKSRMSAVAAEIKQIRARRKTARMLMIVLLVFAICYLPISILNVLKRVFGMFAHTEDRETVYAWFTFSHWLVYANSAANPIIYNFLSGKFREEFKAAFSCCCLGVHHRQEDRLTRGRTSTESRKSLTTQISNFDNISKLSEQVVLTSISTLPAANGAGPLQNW

| Structure (SMILES) | IC50 (human orexin-2 receptor) | IC50 (hOX1R) |
| --- | --- | --- |
| CCOc1ccnc(O[C@@H]2CC[C@@H](C)N(C(=O)c3ccccc3-n3nccn3)C2)c1 [Example 1, 4-Ethoxy-2-{[(3R,6R)-6-methyl-1-{[2-(2H-1,2,3-triazol-2-yl)phenyl]carbonyl}piperidin-3-yl]oxy}pyridine] | 20.5 nM | 859 nM |
| COc1ccnc(O[C@@H]2CC[C@@H](C)N(C(=O)c3c(F)cccc3-n3nccn3)C2)c1 [Example 17, 2-{[(3R,6R)-1-{[2-fluoro-6-(2H-1,2,3-triazol-2-yl)phenyl]carbonyl}-6-methylpiperidin-3-yl]oxy}-4-methoxypyridine] | 27 nM | 1600 nM |
| C[C@@H]1CC[C@@H](Oc2cc(OCC(F)F)ccn2)CN1C(=O)c1ncccc1-n1nccn1 [Example 33, 2-{[(2R,5R)-5-{[4-(2,2-difluoroethoxy)pyridin-2-yl]oxy}-2-methylpiperidin-1-yl]carbonyl}-3-(2H-1,2,3-triazol-2-yl)pyridine] | 71 nM | > 10000 nM |
| CCOc1ccnc(O[C@@H]2CC[C@@H](C)N(C(=O)c3ccccc3-n3ncnn3)C2)c1 [Example 8, 4-ethoxy-2-{[(3R,6R)-6-methyl-1-{[2-(2H-tetrazol-2-yl)phenyl]carbonyl}piperidin-3-yl]oxy}pyridine] | 35.4 nM | 2010 nM |
| CCOc1ccccc1C(=O)N1C[C@H](Oc2cc(OC)ccn2)CC[C@H]1C [Example 14, 2-({(3R,6R)-1-[(2-ethoxyphenyl)carbonyl]-6-methylpiperidin-3-yl}oxy)-4-methoxypyridine] | 34.8 nM | 1980 nM |
| C[C@@H]1CC[C@@H](Oc2cc(OCc3ccccc3)ccn2)CN1C(=O)c1ccccc1-n1nccn1 [Example 4, 4-(benzyloxy)-2-{[(3R,6R)-6-methyl-1-{[2-(2H-1,2,3-triazol-2-yl)phenyl]carbonyl}piperidin-3-yl]oxy}pyridine] | 59.4 nM | 1850 nM |
| C[C@@H]1CC[C@@H](Oc2cc(OCC(F)F)ccn2)CN1C(=O)c1ccccc1-c1ncccn1 [Example 45, 2-(2-{[(2R,5R)-5-{[4-(2,2-difluoroethoxy)pyridin-2-yl]oxy}-2-methylpiperidin-1-yl]carbonyl}phenyl) pyrimidine] | 33 nM | 2940 nM |
| COc1ccnc(O[C@@H]2CC[C@@H](C)N(C(=O)c3ccccc3-n3nccn3)C2)c1C=O [Example 50, 4-Methoxy-2-{[(3R,6R)-6-methyl-1-{[2-(2H-1,2,3-triazol-2-yl)phenyl]carbonyl}piperidin-3-yl]oxy}pyridine-3-carbaldehyde] | 37.5 nM | 6750 nM |
| COc1ccnc(O[C@@H]2CC[C@@H](C)N(C(=O)c3ccc(OC)nc3-c3ccccc3)C2)c1 [Example 15, 6-methoxy-3-({(2R,5R)-5-[(4-methoxypyridin-2-yl)oxy]-2-methylpiperidin-1-yl}carbonyl)-2-phenylpyridine] | 24.5 nM | 746 nM |
| COc1ccnc(O[C@@H]2CC[C@@H](C)N(C(=O)c3ccc(OC)nc3-n3nccn3)C2)c1 [Example 18] | 94.5 nM | 10000 nM |
| C[C@@H]1CC[C@@H](Oc2cc(OC(F)F)ccn2)CN1C(=O)c1ccccc1C1(C#N)CC1 [Example 56, 1-(2-{[(2R,5R)-5-{[4-(difluoromethoxy)pyridin-2-yl]oxy}-2-methylpiperidin-1-yl]carbonyl}phenyl) cyclopropane-carbonitrile] | 11 nM | 1140 nM |
| Cc1noc(-c2ccccc2C(=O)N2C[C@H](Oc3cc(OCC(F)F)ccn3)CC[C@H]2C)n1 [Example 37, 4-(2,2-difluoroethoxy)-2-{[(3R,6R)-6-methyl-1-{[2-(3-methyl-1,2,4-oxadiazol-5-yl)phenyl]carbonyl}piperidin-3-yl]oxy}pyridine] | 52 nM | 2720 nM |
